30 compounds from patent publication US20240299385A1 (ReWind Therapeutics NV, priority 2021, published 2024) can be followed below.

T1 sequence (Q13304 whole entry): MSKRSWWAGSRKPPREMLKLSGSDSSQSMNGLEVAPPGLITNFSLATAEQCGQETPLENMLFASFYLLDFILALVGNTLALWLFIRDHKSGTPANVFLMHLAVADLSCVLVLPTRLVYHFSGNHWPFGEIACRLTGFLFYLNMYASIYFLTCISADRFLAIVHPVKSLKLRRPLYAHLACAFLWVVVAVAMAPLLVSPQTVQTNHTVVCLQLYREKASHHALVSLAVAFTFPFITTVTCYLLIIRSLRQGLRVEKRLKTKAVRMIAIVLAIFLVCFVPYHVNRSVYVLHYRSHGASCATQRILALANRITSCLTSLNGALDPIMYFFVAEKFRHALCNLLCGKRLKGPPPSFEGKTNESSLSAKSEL

The experiment addresses T1, human GPR17 receptor (Homo sapiens, UniProt Q13304).
T1 construct: host or cells: HEK-293
Briefly: Calcium mobilization functional assay (Fluo-8, FLIPR TETRA) in HEK-293 hGPR17 (Gα-q assay). It is filed as cell-based. The note with it: antagonism of MDL29,951 (~EC80) induced Ca2+ signal; cell line (HEK-293 hGPR17 or HEK-293 Suchi5 hGPR17) not given. Summed up: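 Fluo-8-loaded HEK-293 hGPR17 cells (60 min dye loading, room temperature) were preincubated with compound for twenty minutes, then challenged with agonist MDL29,951 at ~EC80, 500 nM. Intracellular calcium release via Gα-q was recorded as FLIPR fluorescence for a further 2 minutes; compounds tested in duplicate.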
On the technique in general: Calcium assays in cells follow changes in intracellular calcium, usually with a dye or a luminescent sensor.
In general, IC50 refers to the midpoint of a concentration-inhibition curve. In the case of `O=S(=O)(Nc1cc(F)c(C(F)(F)F)cc1F)c1c[nH]cc1Cc1cccs1` [Cpd 418, N-[2,5-difluoro-4-(trifluoromethyl)phenyl]-4-(thiophen-2-ylmethyl)-1H-pyrrole-3-sulfonamide], the IC50 was less than 0.5 µM. In the case of `O=S(=O)(Nc1cc(OC(F)F)c(Cl)cc1F)c1c[nH]c(-c2ccccn2)c1` [Cpd 419, N-[4-chloro-5-(difluoromethoxy)-2-fluorophenyl]-5-pyridin-2-yl-1H-pyrrole-3-sulfonamide] it was 0.5 to 5 µM. Take `Cc1ccc(-c2c[nH]cc2S(=O)(=O)Nc2ccc(C#N)cc2F)s1` [Cpd 420, N-(4-cyano-2-fluorophenyl)-4-(5-methylthiophen-2-yl)-1H-pyrrole-3-sulfonamide]: the IC50 was less than 0.5 µM.

On to `N#Cc1ccc(NS(=O)(=O)c2c[nH]c(C3CCCCC3)c2)c(F)c1` [Cpd 421, N-(4-cyano-2-fluorophenyl)-5-cyclohexyl-1H-pyrrole-3-sulfonamide], for which the IC50 was in the range of 0.5 to 5 µM. Then `COc1nc(Cl)c(F)cc1NS(=O)(=O)c1c[nH]c(-c2ccccc2)c1` [Cpd 422, N-(6-chloro-5-fluoro-2-methoxypyridin-3-yl)-5-phenyl-1H-pyrrole-3-sulfonamide], with less than 0.5 µM.

On to `O=S(=O)(Nc1cc(F)c(C(F)(F)F)cc1F)c1c[nH]c(C2CCCCC2)c1` [Cpd 423, 5-cyclohexyl-N-[2,5-difluoro-4-(trifluoromethyl)phenyl]-1H-pyrrole-3-sulfonamide], for which the concentration for half-maximal inhibition (IC50) fell in the range of 0.5 to 5 µM. Regarding `O=S(=O)(Nc1cc(F)c(C(F)(F)F)cc1F)c1c[nH]c(C2CCOC2)c1` (stereo not drawn) [Cpd 424, N-[2,5-difluoro-4-(trifluoromethyl)phenyl]-5-(oxolan-3-yl)-1H-pyrrole-3-sulfonamide], the IC50 lay in the range of 0.5 to 5 µM.

Turning to `O=S(=O)(Nc1cc(OC(F)F)c(Cl)cc1F)c1c[nH]cc1-c1cccc(F)c1` [Cpd 425, N-[4-chloro-5-(difluoromethoxy)-2-fluorophenyl]-4-(3-fluorophenyl)-1H-pyrrole-3-sulfonamide], the IC50 lay within 0.5 to 5 µM. In the case of `O=S(=O)(Nc1cc(OC(F)F)c(Cl)cc1F)c1c[nH]cc1Cc1ccccc1` [Cpd 426, 4-benzyl-N-[4-chloro-5-(difluoromethoxy)-2-fluorophenyl]-1H-pyrrole-3-sulfonamide], the IC50 lay in the range of 0.5 to 5 µM. In the case of `COc1nc(Cl)c(F)cc1NS(=O)(=O)c1c[nH]cc1Cc1ccccc1` [Cpd 427, 4-benzyl-N-(6-chloro-5-fluoro-2-methoxypyridin-3-yl)-1H-pyrrole-3-sulfonamide] it was 0.5 to 5 µM; in that of `COc1nc(Cl)c(F)cc1NS(=O)(=O)c1c[nH]cc1-c1cccc(F)c1` [Cpd 428, N-(6-chloro-5-fluoro-2-methoxypyridin-3-yl)-4-(3-fluorophenyl)-1H-pyrrole-3-sulfonamide], 0.5 to 5 µM. `COc1cc(OC(F)F)cnc1NS(=O)(=O)c1c[nH]c(-c2ccccc2)c1` [Cpd 429, N-[5-(difluoromethoxy)-3-methoxypyridin-2-yl]-5-phenyl-1H-pyrrole-3-sulfonamide]: the IC50 fell in the range of 0.5 to 5 µM. In the case of `O=S(=O)(Nc1cc(F)c(C(F)(F)F)cc1F)c1c[nH]c(C2CCC2)c1` [Cpd 430, 5-cyclobutyl-N-(2,5-difluoro-4-(trifluoromethyl)phenyl)-1H-pyrrole-3-sulfonamide] it was less than 0.5 µM; in that of `COc1nc(Br)cnc1NS(=O)(=O)c1c[nH]cc1Cc1ccccc1` [Cpd 431, 4-benzyl-N-(5-bromo-3-methoxypyrazin-2-yl)-1H-pyrrole-3-sulfonamide], 5 to 50 µM; in that of `O=S(=O)(Nc1ncc(OCC(F)F)cc1F)c1c[nH]cc1Cc1ccccc1` [Cpd 432, 4-benzyl-N-[5-(2,2-difluoroethoxy)-3-fluoropyridin-2-yl]-1H-pyrrole-3-sulfonamide], 0.5 to 5 µM.

For `COc1cc(OC(F)F)cnc1NS(=O)(=O)c1c[nH]cc1Cc1ccccc1` [Cpd 433, 4-benzyl-N-[5-(difluoromethoxy)-3-methoxypyridin-2-yl]-1H-pyrrole-3-sulfonamide], the IC50 was 5 to 50 µM.

With `O=S(=O)(Nc1ncc(OCC(F)F)cc1F)c1c[nH]c(-c2ccccc2)c1` [Cpd 434, N-[5-(2,2-difluoroethoxy)-3-fluoropyridin-2-yl]-5-phenyl-1H-pyrrole-3-sulfonamide], the IC50 is 0.5 to 5 µM. Turning to `COc1nc(Br)cnc1NS(=O)(=O)c1c[nH]c(-c2ccccc2)c1` [Cpd 435, N-(5-bromo-3-methoxypyrazin-2-yl)-5-phenyl-1H-pyrrole-3-sulfonamide], the IC50 lay within 0.5 to 5 µM. In the case of `COc1nc(OCC(F)F)c(F)cc1NS(=O)(=O)c1c[nH]c(-c2ccccc2)c1` [Cpd 436, N-[6-(2,2-difluoroethoxy)-5-fluoro-2-methoxypyridin-3-yl]-5-phenyl-1H-pyrrole-3-sulfonamide] it was less than 0.5 µM; in that of `N#Cc1ccc(NS(=O)(=O)c2c[nH]cc2-c2cccnc2)c(F)c1` [Cpd 437, N-(4-cyano-2-fluorophenyl)-4-(pyridin-3-yl)-1H-pyrrole-3-sulfonamide], 5 to 50 µM. Then `O=S(=O)(Nc1ncc(OCC(F)F)cc1F)c1c[nH]cc1-c1cccc(F)c1` [Cpd 438, N-[5-(2,2-difluoroethoxy)-3-fluoropyridin-2-yl]-4-(3-fluorophenyl)-1H-pyrrole-3-sulfonamide], with 5 to 50 µM. In the case of `N#Cc1cc(F)c(NS(=O)(=O)c2c[nH]cc2Cc2ccccc2)cc1Cl` [Cpd 439, 4-benzyl-N-(5-chloro-4-cyano-2-fluorophenyl)-1H-pyrrole-3-sulfonamide] it was less than 0.5 µM. For `Cc1cc(NS(=O)(=O)c2c[nH]cc2Cc2ccccc2)c(F)cc1C#N` [Cpd 440, 4-benzyl-N-(4-cyano-2-fluoro-5-methylphenyl)-1H-pyrrole-3-sulfonamide], the IC50 was less than 0.5 µM.

On to `N#Cc1ccc(NS(=O)(=O)c2c[nH]c(-c3ccoc3)c2)c(F)c1` [Cpd 441, N-(4-cyano-2-fluorophenyl)-5-(furan-3-yl)-1H-pyrrole-3-sulfonamide], for which the IC50 was less than 0.5 µM. In the case of `N#Cc1ccc(NS(=O)(=O)c2c[nH]c(-c3cccc4ccoc34)c2)c(F)c1` [Cpd 442, 5-(1-benzofuran-7-yl)-N-(4-cyano-2-fluorophenyl)-1H-pyrrole-3-sulfonamide] it was less than 0.5 µM; in that of `N#Cc1ccc(NS(=O)(=O)c2c[nH]c(-c3cccc4c3OCC4)c2)c(F)c1` [Cpd 443, N-(4-cyano-2-fluorophenyl)-5-(2,3-dihydro-1-benzofuran-7-yl)-1H-pyrrole-3-sulfonamide], less than 0.5 µM. Then `COc1nc(OCC(F)F)c(F)cc1NS(=O)(=O)c1c[nH]cc1Cc1ccccc1` [Cpd 444, 4-benzyl-N-[6-(2,2-difluoroethoxy)-5-fluoro-2-methoxypyridin-3-yl]-1H-pyrrole-3-sulfonamide], with 0.5 to 5 µM. Then `N#Cc1ccc(NS(=O)(=O)c2c[nH]c(-c3ccco3)c2)c(F)c1` [Cpd 445, N-(4-cyano-2-fluorophenyl)-5-(furan-2-yl)-1H-pyrrole-3-sulfonamide], with less than 0.5 µM; and `O=S(=O)(Nc1cc(F)c(Br)cc1F)c1c[nH]c(-c2ccc(F)cc2)c1` [Cpd 446, N-(4-bromo-2,5-difluorophenyl)-5-(4-fluorophenyl)-1H-pyrrole-3-sulfonamide], with 0.5 to 5 µM. Turning to `O=S(=O)(Nc1cc(F)c(Br)cc1F)c1c[nH]c(-c2ccc(F)cc2F)c1` [Cpd 447, N-(4-bromo-2,5-difluorophenyl)-5-(2,4-difluorophenyl)-1H-pyrrole-3-sulfonamide], the IC50 fell in the range of 0.5 to 5 µM.
